molecular target: T1, human PTH1 receptor (Homo sapiens, UniProt Q03431); test: In vitro cAMP signal activity in HKRK-B7 cells (LLC-PK1 cells overexpressing the human PTH1 receptor); format: cell-based; conditions: HKRK-B7 cells; compound at 1×10^−3 M; cAMP produced as percentage of that produced by hPTH(1-34) at 100 nM
T1 sequence (Q03431 27-593): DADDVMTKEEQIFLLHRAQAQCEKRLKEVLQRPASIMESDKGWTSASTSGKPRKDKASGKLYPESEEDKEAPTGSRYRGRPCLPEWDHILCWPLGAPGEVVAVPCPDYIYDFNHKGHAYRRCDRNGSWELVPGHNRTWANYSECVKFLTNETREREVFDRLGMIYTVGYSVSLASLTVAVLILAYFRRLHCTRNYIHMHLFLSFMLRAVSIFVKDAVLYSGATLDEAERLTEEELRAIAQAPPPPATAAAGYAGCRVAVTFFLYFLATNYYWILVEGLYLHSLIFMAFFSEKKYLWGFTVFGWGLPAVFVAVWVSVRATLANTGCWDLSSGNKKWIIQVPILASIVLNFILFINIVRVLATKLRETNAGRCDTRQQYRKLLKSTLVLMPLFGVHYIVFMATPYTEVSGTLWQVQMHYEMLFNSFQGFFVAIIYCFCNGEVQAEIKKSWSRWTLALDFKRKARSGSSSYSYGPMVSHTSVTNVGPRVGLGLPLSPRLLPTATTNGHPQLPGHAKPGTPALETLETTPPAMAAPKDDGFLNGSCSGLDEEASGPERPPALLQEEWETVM

| SMILES | cAMP production activity (%) |
| --- | --- |
| CC(=O)N(CC#N)c1ccc(/C=C/S(=O)(=O)N2CCC3(CC2)N=C(c2cccc(OC(F)(F)F)c2)NC3=O)c(C)c1 [Compound 612, N-cyanomethyl-N-(3-methyl-4-{(E)-2-[4-oxo-2-(3-trifluoromethoxy-phenyl)-1,3,8-triaza-spiro[4.5]dec-1-ene-8-sulfonyl]-vinyl}-phenyl)-acetamide] | 62% |
| Cc1cc(C(=O)N2CCC(N(C)C)CC2)cc(C)c1/C=C/S(=O)(=O)N1CCC2(CC1)N=C(c1cccc(OC(F)(F)F)c1)NC2=O [Compound 405, 8-{(E)-2-[4-(4-dimethylamino-piperidine-1-carbonyl)-2,6-dimethyl-phenyl]-ethenesulfonyl}-2-(3-trifluoromethoxy-phenyl)-1,3,8-triaza-spiro[4.5]dec-1-en-4-one] | 7.7% |
| Cc1cc(N2C(=O)NC(C)(C)C2=O)ccc1/C=C/S(=O)(=O)N1CCC2(CC1)N=C(C1CCC(CCC(F)(F)F)CC1)NC2=O (stereo not drawn) [Compound 540, 5,5-Dimethyl-3-[3-methyl-4-((E)-2-{4-oxo-2-[4-(3,3,3-trifluoro-propyl)-cyclohexyl]-1,3,8-triaza-spiro[4.5]dec-1-ene-8-sulfonyl}-vinyl)-phenyl]-imidazolidine-2,4-dione] | 22% |
| Cc1cc(C(=O)N(C)C)ccc1CCS(=O)(=O)N1CCC2(CC1)N=C(C1(C(F)(F)F)CCC1)NC2=O [Compound 137, 3,N,N-trimethyl-4-{2-[4-oxo-2-(1-trifluoromethyl-cyclobutyl)-1,3,8-triaza-spiro[4.5]dec-1-ene-8-sulfonyl]-ethyl}-benzamide] | 50% |
| [2H]C([2H])([2H])C([2H])([2H])C([2H])([2H])C([2H])([2H])Oc1cc(C2=NC3(CCN(S(=O)(=O)/C=C/c4c(C)cc(C(=O)N5CCC(C)(O)CC5)cc4C)CC3)C(=O)N2)ccc1F [Compound 1211, 2-(3-[1,1,2,2,3,3,4,4,4-^2H9]butoxy-4-fluoro-phenyl)-8-{(E)-2-[4-(4-hydroxy-4-methyl-piperidine-1-carbonyl)-2,6-dimethyl-phenyl]-ethenesulfonyl}-1,3,8-triaza-spiro[4.5]dec-1-en-4-one] | 99% |
| Cc1cc(NCCO)ccc1CCS(=O)(=O)N1CCC2(CC1)N=C(c1cccc(C(F)(F)F)c1)NC2=O [Compound 160, 8-{2-[4-(2-hydroxy-ethylamino)-2-methyl-phenyl]-ethanesulfonyl}-2-(3-trifluoromethyl-phenyl)-1,3,8-triaza-spiro[4.5]dec-1-en-4-one] | 65% |
| COc1ccc(C2=NC3(CCN(S(=O)(=O)CCc4ccc(C(=O)N(C)C)cc4C)CC3)C(=O)N2)cc1C(F)(F)F [Compound 144, 4-{2-[2-(4-methoxy-3-trifluoromethyl-phenyl)-4-oxo-1,3,8-triaza-spiro[4.5]dec-1-ene-8-sulfonyl]-ethyl}-3,N,N-trimethyl-benzamide] | 59% |
| Cc1cc(S(=O)(=O)NCCN2CCOCC2)ccc1CCS(=O)(=O)N1CCC2(CC1)N=C(c1cccc(C(F)(F)F)c1)NC2=O [Compound 292, 3-methyl-N-(2-morpholin-4-yl-ethyl)-4-{2-[4-oxo-2-(3-trifluoromethyl-phenyl)-1,3,8-triaza-spiro[4.5]dec-1-ene-8-sulfonyl]-ethyl}-benzenesulfonamide] | 58% |
| Cc1cc(N(C)C(N)=O)cc(Cl)c1/C=C/S(=O)(=O)N1CCC2(CC1)N=C(C1CCC(C)CC1)NC2=O (stereo not drawn) [Compound 695, 1-(3-Chloro-5-methyl-4-{(E)-2-[2-(4-methyl-cyclohexyl)-4-oxo-1,3,8-triaza-spiro[4.5]dec-1-ene-8-sulfonyl]-vinyl}-phenyl)-1-methyl-urea] | 78% |
| Cc1cc(C(=O)N(C)C)ccc1CCS(=O)(=O)N1CCC2(CC1)N=C(c1cc(Cl)cc(C(F)(F)F)c1)NC2=O [Compound 127, 4-{2-[2-(3-chloro-5-trifluoromethyl-phenyl)-4-oxo-1,3,8-triaza-spiro[4.5]dec-1-ene-8-sulfonyl]-ethyl}-3,N,N-trimethyl-benzamide] | 72% |
| Cc1ccccc1CCS(=O)(=O)N1CCC2(CC1)N=C(C1CCCCC1)NC2=S [Compound 469, 2-Cyclohexyl-8-(2-o-tolyl-ethanesulfonyl)-1,3,8-triaza-spiro[4.5]dec-1-ene-4-thione] | 47% |
| O=C(Nc1ccc(CCS(=O)(=O)N2CCC3(CC2)N=C(C2CCCCC2)NC3=O)c(C(F)(F)F)c1)C1CC1 [Compound 271, cyclopropanecarboxylic acid {4-[2-(2-cyclohexyl-4-oxo-1,3,8-triaza-spiro[4.5]dec-1-ene-8-sulfonyl)-ethyl]-3-trifluoromethyl-phenyl}-amide] | 57% |
| CC(C)C1=NC2(CCN(S(=O)(=O)c3cccc(Cl)c3)CC2)C(=O)N1 [Compound 4, 8-(3-chloro-benzenesulfonyl)-2-isopropyl-1,3,8-triaza-spiro[4.5]dec-1-en-4-one] | 11% |
| CO[C@H]1CC[C@H](C2=NC3(CCN(S(=O)(=O)c4cccc(Cl)c4)CC3)C(=O)N2)CC1 [Compound 25, 8-(3-chloro-benzenesulfonyl)-2-(4-methoxy-cyclohexyl)-1,3,8-triaza-spiro[4.5]dec-1-en-4-one] | 18% |
| Cc1cc(N(C2CCC(O)CC2)S(C)(=O)=O)cc(C)c1/C=C/S(=O)(=O)N1CCC2(CC1)N=C(c1cccc(OC(F)(F)F)c1)NC2=O (stereo not drawn) [Compound 715, N-(3,5-dimethyl-4-{(E)-2-[4-oxo-2-(3-trifluoromethoxy-phenyl)-1,3,8-triaza-spiro[4.5]dec-1-ene-8-sulfonyl]-vinyl}-phenyl)-N-(4-hydroxy-cyclohexyl)-methane sulfonamide] | 20% |

More lines, now with the values ahead:

| cAMP production activity (%) | SMILES |
| --- | --- |
| 56% | Cc1cc(C(=O)N2CCC(O)(CF)CC2)cc(C)c1/C=C/S(=O)(=O)N1CCC2(CC1)N=C(c1ccc(OCC(F)(F)C(F)F)c(C(F)(F)F)c1)NC2=O [Compound 1251, 8-{(E)-2-[4-(4-fluoromethyl-4-hydroxy-piperidine-1-carbonyl)-2,6-dimethyl-phenyl]-ethenesulfonyl}-2-[4-(2,2,3,3-tetrafluoro-propoxy)-3-trifluoromethyl-phenyl]-1,3,8-triaza-spiro[4.5]dec-1-en-4-one] |
| 65% | Cc1cc(C(=O)N2CCCO2)cc(C)c1/C=C/S(=O)(=O)N1CCC2(CC1)N=C(C1CCC(CCC(F)(F)F)CC1)NC2=O (stereo not drawn) [Compound 992, 8-{(E)-2-[4-(isoxazolidine-2-carbonyl)-2,6-dimethyl-phenyl]-ethenesulfonyl}-2-[4-(3,3,3-trifluoro-propyl)-cyclohexyl]-1,3,8-triaza-spiro[4.5]dec-1-en-4-one] |
| 22% | Cc1cc(N(C)C(N)=O)cc(C)c1CCS(=O)(=O)N1CCC2(CC1)N=C(CCCCCCCCCCCCCC(=O)O)NC2=O [Compound 1350, 14-(8-{2-[2,6-dimethyl-4-(1-methyl-ureido)-phenyl]-ethanesulfonyl}-4-oxo-1,3,8-triaza-spiro[4.5]dec-1-en-2-yl)-tetradecanoic acid] |
| 79% | CCc1cc(NC(C)=O)ccc1CCS(=O)(=O)N1CCC2(CC1)N=C(C1CCC(C)CC1)NC2=O (stereo not drawn) [Compound 752, N-(3-ethyl-4-{2-[2-(4-methyl-cyclohexyl)-4-oxo-1,3,8-triaza-spiro[4.5]dec-1-ene-8-sulfonyl]-ethyl}-phenyl)-acetamide] |
| 80% | Cc1cc(N(C)C(N)=O)cc(C)c1CCS(=O)(=O)N1CCC2(CC1)N=C(C1C[C@H]3CC[C@@H](C1)C3)NC2=O (stereo partly drawn) [Compound 1054, 1-{4-[2-((1R,5S)-2-bicyclo[3.2.1]oct-3-yl-4-oxo-1,3,8-triaza-spiro[4.5]dec-1-ene-8-sulfonyl)-ethyl]-3,5-dimethyl-phenyl}-1-methyl-urea] |
| 68% | Cc1cc(N2C(=O)CNC2=O)ccc1CCS(=O)(=O)N1CCC2(CC1)N=C([C@H]1CC[C@H](CC(F)(F)F)CC1)NC2=O [Compound 948, 3-[3-Methyl-4-(2-{4-oxo-2-[4-(2,2,2-trifluoro-ethyl)-cyclohexyl]-1,3,8-triaza-spiro[4.5]dec-1-ene-8-sulfonyl}-ethyl)-phenyl]-imidazolidine-2,4-dione] |
| 79% | Cc1cc(C2=NC3(CCN(S(=O)(=O)/C=C/c4c(C)cc(C(=O)N5CCC(C)(O)CC5)cc4C)CC3)C(=O)N2)ccc1OC(F)(F)F [Compound 1214, 8-{(E)-2-[4-(4-hydroxy-4-methyl-piperidine-1-carbonyl)-2,6-dimethyl-phenyl]-ethenesulfonyl}-2-(3-methyl-4-trifluoromethoxy-phenyl)-1,3,8-triaza-spiro[4.5]dec-1-en-4-one] |
| 101% | Cc1cc(N(C)C(N)=O)cc(C)c1/C=C/S(=O)(=O)N1CCC2(CC1)N=C(c1ccc(F)c(C(F)(F)F)c1)NC2=O [Compound 1017, 1-(4-{(E)-2-[2-(4-Fluoro-3-trifluoromethyl-phenyl)-4-oxo-1,3,8-triaza-spiro[4.5]dec-1-ene-8-sulfonyl]-vinyl}-3,5-dimethyl-phenyl)-1-methyl-urea] |
| 77% | Cc1cc(C(=O)N2CCN(C)CC2)ccc1CCS(=O)(=O)N1CCC2(CC1)N=C(c1cccc(OC(F)(F)F)c1)NC2=O [Compound 843, 8-{2-[2-methyl-4-(4-methyl-piperazine-1-carbonyl)-phenyl]-ethanesulfonyl}-2-(3-trifluoromethoxy-phenyl)-1,3,8-triaza-spiro[4.5]dec-1-en-4-one] |

From US9169254B2, “Spiroimidazolone derivative” (Chugai Seiyaku Kabushiki Kaisha, priority 2009, dated 2015)
